Assay results published in US20250171511A1, “ANTIVIRAL PEPTIDES AND METHODS OF USE THEREOF” (Versitech Limited, priority 2021, published 2025).
Where a SMILES comes first, the peptide text is derived from it.

Tests used:
[1] = Solubility of peptide in water; format: physicochemical
Experimental: H23, H26, H30, 2H30, and 4H30 shown in Table 1 were synthesized by ChinaPeptide (Shanghai, China). All peptides were dissolved in water. The solubility of peptide in water is greater than 5 mg ml^−1. The purity of all peptides was >80%. The purity and mass of each peptide were verified by HPLC and mass spectrometry.

VeroE6 cells = assay: Endosomal acidification assay; format: cell-based
Experimental: Endosomal acidification was detected with a pH-sensitive dye (pHrodo green dextran, Invitrogen, Cat^# P35365) according to the manufacturer's instructions as previously described but with slight modification (H. Zhao, et al., Nat Commun, 9 (2018) 2358). First, VeroE6 cells were treated with DMEM, 4H30 (25.0 μg ml^−1), or bafilomycin A1 (50.0 nM) at 4° C. for 15 min. Second, VeroE6 cells were added with 100 μg ml^−1 of pH-sensitive dye and DAPI and then incubated at 4° C. for 15 min. Before taking images, cells were further incubated at 37° C. for 15 min and then cells were washed twice with PBS. Finally, PBS was added to cells and images were taken immediately with confocal microscope (Carl Zeiss LSM 800, Germany).

[2] = test system: spike-ACE2 mediated fusion; format: cell-based; settings: endocytosis pathway
[3] = biological target: SARS-CoV-2 spike (SARS-CoV-2), P0DTC2; assay: cell-based or functional assay

Molecule	solubility [1] [µg/mL]	further results
CC[C@H](C)[C@H](NC(=O)[C@H](CCC(N)=O)NC(=O)[C@H](CCCCN)NC(=O)[C@H](Cc1ccc(O)cc1)NC(=O)[C@H](CCCNC(=N)N)NC(=O)[C@H](CCCNC(=N)N)NC(=O)[C@@H]1CCCN1C(=O)[C@H](CS)NC(=O)[C@H](Cc1ccccc1)NC(=O)[C@@H](NC(=O)[C@@H]1CCCN1C(=O)[C@H](Cc1c[nH]cn1)NC(=O)[C@@H](N)CS)C(C)C)C(=O)NCC(=O)N[C@H](C(=O)N[C@@H](CS)C(=O)NCC(=O)N[C@@H](CC(C)C)C(=O)N1CCC[C@H]1C(=O)NCC(=O)N[C@H](C(=O)N[C@@H](CCCCN)C(=O)N[C@@H](CS)C(=O)O)[C@@H](C)O)[C@@H](C)O [Peptide H23] (H-CHPVFCPRRYKQIGTCGLPGTKC-OH; N-terminus and C-terminus assumed)	> 5000	
CO/C1=C\C(C)=C\[C@@H](C)[C@@H](O)[C@@H](C)C/C(C)=C/C=C/[C@H](OC)[C@@H]([C@@H](C)[C@@H](O)[C@H](C)[C@@]2(O)C[C@@H](O)[C@H](C)[C@@H](C(C)C)O2)OC1=O [bafilomycin Al, bafilomycin A1, reference compound]		endosomal acidification (VeroE6 cells): inhibiting endosomal acidification; spike-ACE2 mediated cell fusion [2]: inhibiting endosomal acidification and cell fusion
CC[C@H](C)[C@H](NC(=O)[C@H](C)NC(=O)CN)C(=O)N[C@@H](CS)C(=O)N[C@@H](Cc1c[nH]cn1)C(=O)N1CCC[C@H]1C(=O)N[C@H](C(=O)N[C@@H](Cc1ccccc1)C(=O)N[C@@H](CS)C(=O)N1CCC[C@H]1C(=O)N[C@@H](CCCNC(=N)N)C(=O)N[C@@H](CCCNC(=N)N)C(=O)N[C@@H](Cc1ccc(O)cc1)C(=O)N[C@@H](CCCCN)C(=O)N[C@@H](CCC(N)=O)C(=O)N[C@H](C(=O)NCC(=O)N[C@H](C(=O)N[C@@H](CS)C(=O)NCC(=O)N[C@@H](CC(C)C)C(=O)N1CCC[C@H]1C(=O)NCC(=O)N[C@H](C(=O)N[C@@H](CCCCN)C(=O)N[C@@H](CS)C(=O)N[C@@H](CS)C(=O)N[C@@H](CCCCN)C(=O)N[C@@H](CCCCN)C(=O)N1CCC[C@H]1C(=O)O)[C@@H](C)O)[C@@H](C)O)[C@@H](C)CC)C(C)C [Peptide H30] (H-GAICHPVFCPRRYKQIGTCGLPGTKCCKKP-OH; N-terminus and C-terminus assumed)	> 5000	
CC[C@H](C)[C@H](NC(=O)[C@H](CCC(N)=O)NC(=O)[C@H](CCCCN)NC(=O)[C@H](Cc1ccc(O)cc1)NC(=O)[C@H](CCCNC(=N)N)NC(=O)[C@H](CCCNC(=N)N)NC(=O)[C@@H]1CCCN1C(=O)[C@H](CS)NC(=O)[C@H](Cc1ccccc1)NC(=O)[C@@H](NC(=O)[C@@H]1CCCN1C(=O)[C@H](Cc1c[nH]cn1)NC(=O)[C@@H](N)CS)C(C)C)C(=O)NCC(=O)N[C@H](C(=O)N[C@@H](CS)C(=O)NCC(=O)N[C@@H](CC(C)C)C(=O)N1CCC[C@H]1C(=O)NCC(=O)N[C@H](C(=O)N[C@@H](CCCCN)C(=O)N[C@@H](CS)C(=O)N[C@@H](CS)C(=O)N[C@@H](CCCCN)C(=O)N[C@@H](CCCCN)C(=O)O)[C@@H](C)O)[C@@H](C)O [Peptide H26] (H-CHPVFCPRRYKQIGTCGLPGTKCCKK-OH; N-terminus and C-terminus assumed)	> 5000	
GAICHPVFCPRRYKQIGTCGLPGTKCCKKP (modifications not checked) [four branched H30 (4H30)]		IC50 of inhibition of SARS-CoV-2 infection, plaque reduction assay in PBS [3]: 0.59 µg/mL
